The term Ki denotes the dissociation constant of the complex between target and ligand, obtained from inhibition or displacement. A word on the pKi: it is the Ki on a negative log10 scale, so that one unit is a factor of ten. A lower pKi goes with a large Ki. A word on the melting point: it is the temperature, or range, at which the solid turns liquid.

pKi: −log10 of the molar value. Structures can show the parent of a compound that is named as a salt. Where two headings read alike, the source gives them in different places.

The text below walks through data of patent publication US7655671B2, “Morphinan derivatives, the quaternary ammonium salts thereof substituted in position 14, method for production and use thereof” (priority 2002, dated 2010).

Data set [1] has as its system rats. Put plainly: Rat tail flick test (analgesia). It counts as in vivo. The note with it: for ED50: sc, read-out: ED50 (μg/kg, sc); for ED50 (μg/rat, icv): rats of 120 g. On the procedure: To determine the analgesic activity of quaternised compounds, a test on rats, the “Rat Tail Flick Test”, was used. The test was carried out as described earlier (Zs. Fürst et al., Eur. J. Pharmacol. 1993; 236: 209-215).
(In general: Hot-plate and tail-flick tests time the reaction to a heat stimulus.)

The test system of data set [2] is mice. Put plainly: animal or person. In kind it is in vivo. The conditions noted are these: mouse tail flick test; for ED50 (μg/kg, sc) / ED50: subcutaneous application; for ED50 / analgesic activity (in words): sc; for ED50: read-out: ED50 (μg/kg, sc).
Data set [3] concerns mice. Put plainly: Hot-plate test (analgesia). It counts as in vivo, mouse. The conditions noted are these: for ED50 (μg/kg, sc) / ED50: subcutaneous application; for ED50: Mus musculus, read-out: ED50 (μg/kg, sc); for ED50 / analgesic activity (in words): sc. Here is the method: A test on mice (“hot-plate test”) was carried out as described earlier (E. L. May et al., J. Med. Chem. 2000; 43, 5030-5036).

Data set [4] addresses T1, μ-opioid receptors (Rattus norvegicus, UniProt P33535).
T1 construct: from tissue; host or cells: rat brain homogenate
Put plainly: Opioid receptor binding studies on rat's brain homogenisates with [3H]DAMGO. The note with it: for Ki: [3H]DAMGO as radio-ligand, rat's brain homogenisates, read-out: Ki (nM) (μ-receptors).

[5] abbreviates: rat tail flick test, subcutaneous application.
The mark [6] stands for this setting: rat tail flick test, intracerebroventricular application.

T1 sequence (P33535 whole entry): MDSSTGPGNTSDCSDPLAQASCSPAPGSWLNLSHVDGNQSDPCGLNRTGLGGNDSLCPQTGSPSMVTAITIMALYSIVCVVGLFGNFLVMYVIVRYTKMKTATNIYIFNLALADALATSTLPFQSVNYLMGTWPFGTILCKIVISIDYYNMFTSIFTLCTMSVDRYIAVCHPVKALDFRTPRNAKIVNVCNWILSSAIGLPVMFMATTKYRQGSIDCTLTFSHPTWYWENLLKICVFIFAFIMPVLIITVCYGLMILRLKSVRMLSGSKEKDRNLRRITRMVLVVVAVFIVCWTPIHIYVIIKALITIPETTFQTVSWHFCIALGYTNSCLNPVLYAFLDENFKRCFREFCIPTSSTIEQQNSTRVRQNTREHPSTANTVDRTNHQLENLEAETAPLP

For the molecule `CO[C@@]12CCC(=O)[C@]3(C)Oc4c(O)ccc5c4[C@@]31CCN(C)[C@@H]2C5` [14-methoxymetopon, reference compound], the “ED50 (μg/kg, sc)” value in data set [1] (setting [5]) turned out to be 7.2 µg/kg; in data set [2], 30 µg/kg; in data set [3] it was 30 µg/kg. The Ki in data set [4] was found to be 0.55 nM.
Regarding `C=CC[N@@+]1(C)CC[C@]23c4c5ccc(O)c4O[C@H]2C(=O)CC[C@@]3(OCC)[C@H]1C5.[I-]` [Compound 41, (17R)-17-allyl-4,5α-epoxy-14β-ethoxy-3-hydroxy-17-methyl-6-oxomorphinanium-iodide], the melting point was 130 to 134 °C. The molecule further had a pKi in data set [4] of 8.63.
As to `COc1cccc2c1[C@]13CCN(CC4CC4)[C@H](C2)[C@]1(OC)CCC(=O)C3` [Cyprodime, cyprodime, reference compound], the pKi in data set [4] is 7.63.
On to `C[N@+]1(CC2CCCO2)CC[C@]23c4c5ccc(O)c4OC2C(=O)CCC3(OCCCc2ccccc2)C1C5.[I-]` (stereo partly drawn) [Compound 40, (17R)-4,5α-epoxy-3-hydroxy-17-methyl-6-oxo-14β-[(3-phenylpropyl)oxy]-17-[(2-R,S-tetrahydrofurfuran-2-yl)methyl]morphinanium-iodide], for which the melting point lay within 156 to 159 °C. Besides, the pKi in data set [4] is 9.43.
Turning to `CN1CC[C@]23c4c5ccc(O)c4O[C@H]2[C@@H](O)C=C[C@H]3[C@H]1C5` [Morphine, reference compound], the ED50 in data set [1] (setting [5]) stood at 1900 µg/kg.
For `C=CC[N@@+]1(C)CC[C@]23c4c5ccc(O)c4O[C@H]2C(=O)CC[C@@]3(OC)[C@H]1C5.[I-]` [Compound 42, (17R)-17-allyl-4,5α-epoxy-3-hydroxy-14β-methoxy-17-methyl-6-oxomorphinanium-iodide], the melting point fell in the range of 178 to 181 °C. For the same molecule, the “ability to overcome the blood-brain barrier” value in data set [1] (inferred from icv versus sc activity) is “only to a limited degree”. In data set [1] (setting [6]), the “analgesic activity (in words)” value is recorded as “extremely active” and the “ED50 (μg/rat, icv)” value is recorded as 0.22 μg/rat. Further, in data set [1] (setting [5]), the “analgesic effect (in words)” value is “very high analgesic effect” and the ED50 was 16 µg/kg. The molecule further had a pKi in data set [4] of 8.23.
In turn, `C[N+]1(C)CC[C@]23c4c5ccc(O)c4O[C@H]2C(=O)CC[C@@]3(OCCCc2ccccc2)[C@H]1C5.[I-]` [Compound 38, 4,5α-epoxy-3-hydroxy-17,17-dimethyl-6-oxo-14β-[(3-phenylpropyl)oxy]morphinanium-iodide] displayed a melting point of 164 to 170 °C. For the same molecule, the “ED50 (μg/rat, icv)” value in data set [1] (setting [6]) came to 12 μg/rat. For the same molecule, in data set [1] (setting [5]), the “analgesic effect (in words)” value is “very high analgesic effect” and the ED50 was 120 µg/kg. In data set [4], this molecule had a pKi of 8.39.
Consider `O=C1CC[C@@]2(OCCCc3ccccc3)[C@H]3Cc4ccc(O)c5c4[C@@]2(CCN3CCc2ccccc2)[C@H]1O5` [Compound 9, 4,5α-epoxy-3-hydroxy-17-(2-phenylethyl)-14β-(3-phenylpropyloxy)morphinan-6-one hydrochloride], for which the ED50 in data set [3] came to 11.7 µg/kg.
Take `C#CCOc1ccc2c3c1O[C@@]1(C)C(=O)CC[C@@]4(OCCCc5ccccc5)[C@@H](C2)N(C)CC[C@]314.Cl` [Compound 17, 4,5α-epoxy-5β,17-dimethyl-14β-[(3-phenylpropyl)oxy]-3-[(prop-2-inyl)oxy]morphinan-6-one hydrochloride]: the “ED50 (μg/kg, sc)” value in data set [2] is 21 µg/kg; in data set [3], 38 µg/kg. Further, the “analgesic activity (in words)” value in data set [3] was “surprisingly high”. Further, the Ki in data set [4] was 0.73 nM.
With `O=C1CC[C@@]2(OCCCc3ccccc3)[C@H]3Cc4cccc(O)c4[C@@]2(CC[N@H+]3CC2CC2)C1.[Cl-]` [Compound 55, 17-(cyclopropylmethyl)-4-hydroxy-14β-[(3-phenylpropyl)oxy]morphinan-6-one hydrochloride], the melting point is > 170 °C (dec.). For the same molecule, the pKi in data set [4] is 9.40.
In the same order, the values of `COc1ccc2c3c1O[C@H]1C(=O)CC[C@@]4(OCCCc5ccccc5)[C@@H](C2)[N@@+](C)(CC2CC2)CC[C@]314.[I-]` [Compound 49, (17R)-17-cyclopropylmethyl-4,5α-epoxy-3-methoxy-17-methyl-6-oxo-14β-[(3-phenylpropyl)oxy]morphinanium-iodide] are 133 to 136 °C and 8.75.
As to `O=C1CC[C@@]2(OCCCc3ccccc3)C3Cc4ccc(O)c5c4[C@@]2(CCN3CC2CCCO2)[C@H]1O5` (stereo partly drawn) [Compound 10, 4,5α-epoxy-17-[2-((R,S)-tetrahydrofuran-2-yl)methyl]-3-hydroxy-14β-(3-phenylpropyloxy)morphinan-6-one hydrochloride], the results for the ED50 in data set [2] and in data set [3] were 7 µg/kg and 1.3 µg/kg, respectively.
On to `CN1CC[C@]23c4c5cccc4O[C@H]2C(=O)CC[C@@]3(OCCCc2ccccc2)[C@H]1C5` [Compound 53, 4,5α-epoxy-17-methyl-14β-[(3-phenylpropyl)oxy]morphinan-6-one], for which the melting point is 105 to 109 °C. Further, in data set [2], the ED50 turned out to be 0.4 µg/kg. Moreover, the ED50 in data set [3] stood at 3 µg/kg.
For the molecule `CCCN1CC[C@]23c4c5ccc(O)c4O[C@H]2C(=O)CC[C@@]3(OCCCc2ccccc2)[C@H]1C5` [Compound 11, 4,5α-epoxy-3-hydroxy-14β-(3-phenylpropyloxy)-17-propylmorphinan-6-one hydrochloride], the ED50 in data set [2] is 1.6 µg/kg; in data set [3], 1.7 µg/kg.
Regarding `CN1CC[C@]23c4c5ccc(O)c4O[C@@]2(C)C(=O)CC[C@@]3(OCCCc2ccccc2)[C@H]1C5` [Compound 17b, 4,5α-epoxy-3-hydroxy-5β,17-dimethyl-14β-[(3-phenylpropyl)oxy]morphinan-6-one hydrobromide], in data set [3], the ED50 came out at 0.1 µg/kg. Besides, the pKi in data set [4] was 9.70.
`O=C1CC[C@@]2(OCCCc3ccccc3)[C@H]3Cc4cccc5c4[C@@]2(CC[N@H+]3CC2CC2)[C@H]1O5.[Cl-]` [Compound 54, 17-(cyclopropylmethyl)-4,5α-epoxy-14β-[(3-phenylpropyl)oxy]morphinan-6-one hydrochloride] yielded a melting point of 145 to 150 °C. In data set [4], this molecule gave a pKi of 9.08.
Turning to `O=C1CC[C@@]2(OCCCc3ccccc3)[C@H]3Cc4ccc(O)c5c4[C@@]2(CCN3CC2CCC2)[C@H]1O5` [Compound 7, 17-cyclobutylmethyl-4,5α-epoxy-3-hydroxy-14β-(3-phenylpropyloxy)morphinan-6-one hydrochloride], the ED50 in data set [2] was determined as 8.2 µg/kg; in data set [3], 3.7 µg/kg.
On to `C=CCN1CC[C@]23c4c5ccc(O)c4O[C@H]2C(=O)CC[C@@]3(OCCCc2ccccc2)[C@H]1C5` [Compound 6, 17-allyl-4,5α-epoxy-3-hydroxy-14β-(3-phenylpropyloxy)morphinan-6-one hydrochloride], for which the ED50 in data set [2] came to 5.6 µg/kg; in data set [3], 5.9 µg/kg.
For the molecule `O=C1CC[C@@]2(OCCCc3ccccc3)[C@H]3Cc4ccc(O)c5c4[C@@]2(CCN3CC2CC2)[C@H]1O5` [Compound 8, 17-cyclopropylmethyl-4,5α-epoxy-3-hydroxy-14β-(3-phenylpropyloxy)morphinan-6-one hydrochloride], the ED50 was 3.2 µg/kg in data set [2] and 2.3 µg/kg in data set [3]. In addition, the Ki in data set [4] was 0.34 nM.
In the case of `COc1ccc2c(c1OC)[C@]13CCN(C)[C@H](C2)[C@]1(OCCCc1ccccc1)CCC(=O)[C@H]3C` [Compound 32, 3,4-dimethoxy-5β,17-dimethyl-14β-[(3-phenylpropyl)oxy]morphinan-6-one hydrochloride], the entries for the “analgesic activity (in words)” value in data set [2] and in data set [3] were “very high analgesic activity” and “somewhat lower analgesic activity”, respectively. Moreover, the ED50 was determined as 14 µg/kg in data set [2] and 22 µg/kg in data set [3].
In turn, `COc1ccc2c3c1O[C@@]1(C)C(=O)CC[C@@]4(OCCCc5ccccc5)[C@@H](C2)N(C)CC[C@]314` [Compound 17a, 4,5α-epoxy-3-methoxy-5β,17-dimethyl-14β-[(3-phenylpropyl)oxy]morphinan-6-one] registered a melting point of 126 to 128 °C. The ED50 in data set [2] is 4.4 µg/kg. For the same molecule, the ED50 in data set [3] worked out at 2.6 µg/kg. In data set [4], this molecule showed a pKi of 9.21.
On to `COc1ccc2c(c1O)[C@]13CCN(C)[C@H](C2)[C@]1(OCc1ccccc1)CCC(=O)C3` (as salt: hydrochloride), for which the melting point was > 220 °C (dec.).
In turn, `COc1cccc2c1[C@]13CC[N@@H+](CC4CC4)[C@H](C2)[C@]1(OCCCc1ccccc1)CCC(=O)C3.[Cl-]` [Compound 56, 17-(cyclopropylmethyl)-4-methoxy-14β-[(3-phenylpropyl)oxy]morphinan-6-one hydrochloride] returned a melting point of 121 to 126 °C. In data set [4], this molecule had a pKi of 9.47.
For `COc1ccc2c3c1O[C@H]1C(=O)CC[C@@]4(OCCCc5ccccc5)[C@@H](C2)N(CCc2ccccc2)CC[C@]314` [Compound 4, 4,5α-epoxy-3-methoxy-17-(2-phenylethyl)-14β-(3-phenylpropyloxy)morphinan-6-one hydrochloride], in data set [2], the “analgesic activity (in words)” value was “somewhat lower analgesic activity” and the ED50 turned out to be 84 µg/kg. Further, in data set [3], the ED50 came to 60 µg/kg and the “analgesic activity (in words)” value is on record as “somewhat lower analgesic activity”.
Molecule `C=CC[N@+]1(C)CC[C@]23c4c5ccc(O)c4O[C@H]2C(=O)CC[C@@]3(OC)[C@H]1C5.[I-]` [Compound 43, (17S)-17-allyl-4,5α-epoxy-3-hydroxy-14β-methoxy-17-methyl-6-oxomorphinanium-iodide] yielded a melting point of more than 140 °C. Besides, the pKi in data set [4] is 8.88.
